Measurements taken from patent publication US6500431B1, “Inhibitors of angiogenesis and tumor growth” (University of Southern California, priority 1998, dated 2002).
No end group written: not given here.

Columns and labels:
Type in all cases: cell-based
[1] = test system: endothelial cells; assay: Endothelial cell migration assay, fibronectin-coated transwell; conditions: chemotaxis induced by VEGF or bFGF
Procedure: (§1) The assays were done in double chamber wells separated by […] membrane. Chemotaxis was induced by bFGF (25 ng/mL) in the lower chamber. Endothelial cells or KS cells (5×10^4/mL) were placed in the upper chamber in the presence and absence of test polypeptides. Taxol at 10 ng/mL was used as a known inhibitor of migration. Cell migration across the membrane was quantitated after an overnight incubation.
Angiogenesis is mediated by complex biochemical processes including degradation of the basement membrane under existing blood vessel endothelial cells, followed by proliferation and migration of endothelial cells, followed by formation of capillary loops, and recruitment of vascular smooth muscle cells to encase the newly formed vessels and provide stability. […]
Briefly, wells were coated with fibronectin (25 μg/mL) overnight, and endothelial cells or KS cells were plated in the upper chamber with 100 μL of DMEM/0.4% FCS. […] The plates were incubated for 5 hr at 37° C. and the cells crossing the fibronectin-coated membrane were counted after wiping the cells off the membrane in the upper chamber with a cotton swab.
The cells that traversed the membrane were fixed with Diff-Quik stain according to the manufacturer's instruction (Dade Diagnostics Inc., Aguada, PR). The cells were counted under a microscope at 320× in four randomly selected fields. […]

[2] = test system: T1 cells; assay: Fibroblast proliferation assay (MTT); conditions: 5000 T1 cells/well, 7 days
Procedure: To determine if Saposin B polypeptides had anti-angiogenic activity, a series of overlapping polypeptides were synthesized and tested in the KS Y-1 cell proliferation assay. The overlapping polypeptides are SEQ ID NOS:13 though 42. Cell Proliferation assays in either KS cells or fibroblast. Cells were plated in 48 well plates at equal numbers in appropriate culture medium. Cells were treated with the test compounds at various concentrations on day one, and on day 3. […] KS cells were used to represent the activated endothelial cells, while fibroblast cells represent the control cells. The results are remarkable for the lack of toxicity to the fibroblast relative to the activated endothelial cells/KS cells.

[3] = test system: KS Y-1 cells; assay: KS Y-1 cell proliferation assay (MTT); conditions: concentration not printed, 5 days, MTT
Procedure: To determine if Saposin B polypeptides had anti-angiogenic activity, a series of overlapping polypeptides were synthesized and tested in the KS Y-1 cell proliferation assay. The overlapping polypeptides are SEQ ID NOS:13 though 42. Cell Proliferation assays in either KS cells or fibroblast. Cells were plated in 48 well plates at equal numbers in appropriate culture medium. Cells were treated with the test compounds at various concentrations on day one, and on day 3. MTT was done on day 5. KS cells were used to represent the activated endothelial cells, while fibroblast cells represent the control cells. The results are remarkable for the lack of toxicity to the fibroblast relative to the activated endothelial cells/KS cells.

[4] = test system: KS Y-1 cells; assay: KS cell migration assay, fibronectin-coated transwell; conditions: 50,000 KS Y-1 cells/well, 25 ng/mL bFGF, overnight
Procedure: as §1
Angiogenesis is mediated by complex biochemical processes including degradation of the basement membrane under existing blood vessel endothelial cells, followed by proliferation and migration of endothelial cells, followed by formation of capillary loops, and recruitment of vascular smooth muscle cells to encase the newly formed vessels and provide stability. KS and endothelial cell migration in the presence of Saposin B was studied in transwell culture plates with 8 μm pore membranes (Costar, Cambridge, Mass.).
Briefly, wells were coated with fibronectin (25 μg/mL) overnight, and endothelial cells or KS cells were plated in the upper chamber with 100 μL of DMEM/0.4% FCS. 500 μL of DMEM/0.4% FCS was added to the lower chamber and incubated at 37° C. for one hour. The test polypeptides, at various concentrations, were added to the upper chamber, and chemotactic agents (VEGF or bFGF at 20 ng/mL) were added to the lower cell-culture chambers. The plates were incubated for 5 hr at 37° C. and the cells crossing the fibronectin-coated membrane were counted after wiping the cells off the membrane in the upper chamber with a cotton swab.
The cells that traversed the membrane were fixed with Diff-Quik stain according to the manufacturer's instruction (Dade Diagnostics Inc., Aguada, PR). The cells were counted under a microscope at 320× in four randomly selected fields. The experiments were done in duplicate and repeated at least three times.

[5] = Activity of truncated recombinant Saposin B (FIG. 1C); conditions: cell type not given
From the text: FIG. 1C: Activity of truncated recombinant Saposin B. Saposin (Sap) B 1-69 (consisting of the first 69 amino acids), Sap B 1-42 (consisting of the first 42 amino acids), Sap B 11-81 (consisting of 11-81 amino acids and thus lacking the first 10 amino acids).

[6] = test system: KS cell lines; assay: Activity of recombinant Prosaposin chains on growth of KS cell lines; conditions: Saposin C: highest concentration tested 50 μg/mL
From the text: In order to determine whether recombinant Saposin B has anti-angiogenic activity, the coding region of each of the Prosaposin chains was amplified from fibroblast cell lines and cloned into both bacterial (pGEX-KG) and eukaryotic (pcDNA 3.1His A) expression vectors.
The PCR products were digested with the respective restriction enzymes and the restriction products were inserted into the pGEX-KG vector for bacterial expression. pGEX-KG vector comprises a glutathione S transferase (GST)-tag at the […] of the insertion site so that a GST-fusion protein is expressed. The GST-tag is used to aid in purification of the recombinant protein. After elution from a glutathione-Sepharose 4B column, the GST-tagged proteins were incubated with thrombin (4 μg/ml) for 4 hr at room temperature (22-25° C.) in 50 mM Tris, pH 8.3, 3 mM CaCl2, 150 mM NaCl to cleave GST from the fusion protein. Free GST was removed from the preparation by passing the digested fusion protein through the glutathione-Sepharose 4B column.
(§2) By SDS-PAGE, the bacterial product was smaller than the eukaryotic protein. Because prokaryotically expressed proteins are not glycosylated, the difference in molecular weights probably represents the presence of carbohydrate in the eukaryotic protein. Recombinant proteins were then tested in KS, endothelial and control cell lines. Activity was found only in KS cell lines and endothelial cells.

[7] = test system: endothelial cells (HUVEC); assay: Growth inhibition of endothelial cells; conditions: Saposin C: highest concentration tested 50 μg/mL
Procedure: FIG. 1D: Activity of n-terminus decapeptide (DVCQDCIQMV; SEQ ID NO 21).
FIG. 1E: Activity of N-terminus pentapeptide (DVCQC; SEQ ID NO: 28).
as §2

CC(=O)O[C@H]1C(=O)[C@@]2(C)[C@H]([C@H](OC(=O)c3ccccc3)[C@]3(O)C[C@H](OC(=O)[C@H](O)[C@@H](NC(=O)c4ccccc4)c4ccccc4)C(C)=C1C3(C)C)[C@]1(OC(C)=O)CO[C@@H]1C[C@@H]2O [paclitaxel, reference compound]
inhibition of endothelial cell migration [1]: did not completely inhibit

GDVCQDCIQMV [SEQ ID NO:19]
Fibroblast Proliferation, % of Control ([2]; 1 μg/mL): 91.3 % of Control | Fibroblast Proliferation, % of Control ([2]; 10 μg/mL): 91.3 % of Control | Fibroblast Proliferation, % of Control ([2]; 50 μg/mL): 82.6 % of Control | Cell Proliferation Activity (% of control), KSY-1 ([3]; first of two KSY-1 value columns): 28 % of control | Cell Proliferation Activity (% of control), KSY-1 ([3]; second of two KSY-1 value columns): 8 % of control | % Cells Migrating Through Membrane (of Control) ([4]; 1 μg/mL): 78.23 % (of Control) | % Cells Migrating Through Membrane (of Control) ([4]; 50 μg/mL): 20.98 % (of Control) | % Cells Migrating Through Membrane (of Control) [4]: 40.32 % (of Control)

Sap B 1-42: truncated recombinant Saposin B consisting of the first 42 amino acids (GDVCQDCIQMVTDIQTAVRTNSTFVQALVEHVKEECDRLGPG; ends and bridges not checked; cysteine pairing not given here; UniProt P07602 195-236, looked up, fragment)
growth inhibition by truncated recombinant Saposin B [5]: dose dependent growth inhibition

B1: Prosaposin: 70 kD glycoprotein, precursor of Saposin A, B, C and D; naturally occurring full-length (protein, listed as Homo sapiens)
chain: MYALFLLASLLGAALAGPVLGLKECTRGSAVWCQNVKTASDCGAVKHCLQTVWNKPTVKSLPCDICKDVVTAAGDMLKDNATEEEILVYLEKTCDWLPKPNMSASCKEIVDSYLPVILDIIKGEMSRPGEVCSALNLCESLQKHLAELNHQKQLESNKIPELDMTEVVAPFMANIPLLLYPQDGPRSKPQPKDNGDVCQDCIQMVTDIQTAVRTNSTFVQALVEHVKEECDRLGPGMADICKNYISQYSEIAIQMMMHMQPKEICALVGFCDEVKEMPMQTLVPAKVASKNVIPALELVEPIKKHEVPAKSDVYCEVCEFLVKEVTKLIDNNKTEKEILDAFDKMCSKLPKSLSEECQEVVDTYGSSILSILLEEVSPELVCSMLHLCSGTRLPALTVHVTQPKDGGFCEVCKKLVGYLDRNLEKNSTKQEILAALEKGCSFLPDPYQKQCDQFVAEYEPVLIEILVEVMDPSFVCLKIGACPSAHKPLLGTEKCIWGPSYWCQNTETAAQCNAVEHCKRHVWN
modifications: prosaposin
notes: 70 kD glycoprotein, precursor of Saposin A, B, C and D; naturally occurring full-length
activity against KS cell lines [6]: no activity | activity against endothelial cells [7]: no activity
